The text below walks through data of patent publication US20240366624A1, “METHODS AND COMPOSITIONS FOR TREATING THROMBOTIC DISEASE” (Washington University, priority 2023, published 2024).

Holding throughout (assay type): biochemical
One assay addresses T1, ERO1α (Homo sapiens, UniProt Q96HE7).
T1 sequence (Q96HE7 24-468): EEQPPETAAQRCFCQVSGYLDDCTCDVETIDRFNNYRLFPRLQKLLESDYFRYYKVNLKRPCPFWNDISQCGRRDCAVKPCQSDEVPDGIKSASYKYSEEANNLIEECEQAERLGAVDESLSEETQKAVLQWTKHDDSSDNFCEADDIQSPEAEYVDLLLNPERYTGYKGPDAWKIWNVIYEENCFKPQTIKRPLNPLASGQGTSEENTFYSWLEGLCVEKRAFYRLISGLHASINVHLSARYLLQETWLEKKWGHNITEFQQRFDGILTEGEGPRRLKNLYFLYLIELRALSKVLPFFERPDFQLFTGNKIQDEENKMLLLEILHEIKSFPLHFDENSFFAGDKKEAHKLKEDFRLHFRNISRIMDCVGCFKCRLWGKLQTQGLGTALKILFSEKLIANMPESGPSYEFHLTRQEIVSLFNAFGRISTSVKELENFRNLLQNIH
Kind of assay: ERO1α activity assay. The settings on record: 20 μM. An excerpt:
(§1) FIG. 17(A-F) is an exemplary embodiment of identification of novel ERO1α inhibitors by high throughput screening in accordance with the present disclosure. FIG. 17A: A scheme of an ERO1α activity assay. FIG. 17B: Screening of chemical libraries in the ERO1α activity assay. FIG. 17C: The inhibitory effect of selected compounds on ERO1α activity. FIG. 17D: The inhibitory effect of selected compounds on PDI activity. FIG. 17E: The inhibitory effect of selected compounds on H2O2 activity. FIG. 17F: The inhibitory effect of selected compounds on thiol-reacting activity. The data represent the mean±SD (n=3). *P<0.05, **P<0.01, ***P<0.001, and ****P<0.0001 vs. vehicle control, Student's t-test.
(§2) To identify a novel ERO1α inhibitor, 5800 compounds were screened using an ERO1α activity assay (FIG. 17A and FIG. 17B). […] The selected compounds were further tested in assays measuring PDI, antioxidant, and thiol-reacting activities (FIG. 17D through FIG. 17F). […] B12 inhibited P-selectin exposure and αIIbβ3 activation in agonist-activated mouse and human platelets in a concentration-dependent manner (FIG. 18B through FIG. 18E).

The target in the next assay is PDI (Homo sapiens, UniProt P07237). As to the kind of experiment: PDI activity assay. Particulars: 100 μM.
Chain of PDI (P07237 18-508, species assumed): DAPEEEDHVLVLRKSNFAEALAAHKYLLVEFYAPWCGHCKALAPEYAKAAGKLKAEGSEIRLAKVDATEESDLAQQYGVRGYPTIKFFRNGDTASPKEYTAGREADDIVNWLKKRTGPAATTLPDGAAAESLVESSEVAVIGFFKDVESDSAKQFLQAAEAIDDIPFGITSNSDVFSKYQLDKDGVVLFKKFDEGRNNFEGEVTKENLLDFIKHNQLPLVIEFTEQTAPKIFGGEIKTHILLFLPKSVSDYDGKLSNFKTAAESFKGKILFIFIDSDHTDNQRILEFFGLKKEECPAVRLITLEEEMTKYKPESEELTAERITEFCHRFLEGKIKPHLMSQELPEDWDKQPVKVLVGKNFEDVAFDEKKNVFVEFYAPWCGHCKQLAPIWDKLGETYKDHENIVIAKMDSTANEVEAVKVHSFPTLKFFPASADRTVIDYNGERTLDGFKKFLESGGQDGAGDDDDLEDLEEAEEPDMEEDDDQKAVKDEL
From the text: as §1, §2

A short description of assay [1]: H2O2 (antioxidant) activity assay. The settings on record: 100 μM.
From the text: as §1, §2

Assay [2] in a line: thiol-reacting (GSH) activity assay. The settings on record: 100 μM.
From the text: as §1, §2

For assay [3], the target named is T2, MAO-A (monoamine oxidase A) (Homo sapiens, UniProt P21397).
T2 sequence (P21397 1-527): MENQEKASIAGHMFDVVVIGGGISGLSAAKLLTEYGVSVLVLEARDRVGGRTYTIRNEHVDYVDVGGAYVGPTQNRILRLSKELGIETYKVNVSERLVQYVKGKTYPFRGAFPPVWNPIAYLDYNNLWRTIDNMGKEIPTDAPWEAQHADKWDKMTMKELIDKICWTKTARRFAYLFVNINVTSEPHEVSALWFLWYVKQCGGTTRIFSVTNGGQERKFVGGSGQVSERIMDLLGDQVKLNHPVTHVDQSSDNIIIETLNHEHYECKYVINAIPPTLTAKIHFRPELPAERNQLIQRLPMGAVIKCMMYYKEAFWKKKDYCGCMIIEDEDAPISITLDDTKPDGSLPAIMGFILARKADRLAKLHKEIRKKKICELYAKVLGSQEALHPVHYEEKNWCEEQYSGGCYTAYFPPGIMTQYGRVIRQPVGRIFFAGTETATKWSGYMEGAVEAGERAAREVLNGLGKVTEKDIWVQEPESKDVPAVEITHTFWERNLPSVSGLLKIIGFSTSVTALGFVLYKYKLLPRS
As to the kind of experiment: MAO-A activity assay. The settings on record: 100 μM.

As for `O=C(COc1ccccc1)N1c2ccccc2Sc2ccccc21` [B12-3], on ERO1α, the “ERO1α inhibition at 20 μM (%)” value is reported as 57.0 ± 19%. Also, the “PDI inhibition at 100 μM (%)” value on PDI was found to be 10.2 ± 3%. Also, the “H2O2 inhibition at 100 μM (%)” value in assay [1] was 2.1 ± 1%. The “GSH inhibition at 100 μM (%)” value in assay [2] is 22.3 ± 7%. In assay [3], the “MAO-A inhibition at 100 μM (%)” value stood at 24.8 ± 4%.
For `O=C(COc1ccc(O)cc1)N1c2ccccc2Sc2ccccc21` [B12-4], in that order: 74.0 ± 17%, 13.2 ± 3%, 6.0 ± 2%, 27.2 ± 7% and 34.8 ± 4%.
For `N#Cc1cc(SCC(=O)N2c3ccccc3Sc3ccccc32)nc2c1CCCC2` [B12-6] the same measures were 87.6 ± 17%, 20.2 ± 4%, 1.7 ± 1%, 30.1 ± 10% and 37.7 ± 8%.
In the case of `CCCn1c(SCC(=O)N2c3ccccc3Sc3ccccc32)nc2ccccc21` [B12-7], the “ERO1α inhibition at 20 μM (%)” value on ERO1α was found to be 75.5 ± 20%. The “PDI inhibition at 100 μM (%)” value at PDI came to 30.3 ± 8%. In addition, in assay [1], the “H2O2 inhibition at 100 μM (%)” value came to 1.9 ± 1%. Also, the “GSH inhibition at 100 μM (%)” value in assay [2] stood at 33.3 ± 10%. The “MAO-A inhibition at 100 μM (%)” value in assay [3] amounted to 39.1 ± 8%.
For `O=C(COc1nc2ccccc2s1)n1c2ccccc2c2ccccc21` [B12-8*] the same measures were 48.6 ± 10%, 8.6 ± 3%, 0.3 ± 0.1%, 13.6 ± 3% and 22.3 ± 5%.
For `Cc1nc2ccccc2nc1SCC(=O)N1c2ccccc2Sc2ccccc21` [B12-11] the same measures were 82.3 ± 20%, 23.1 ± 5%, 2.3 ± 1%, 33.5 ± 4% and 28.1 ± 5%.
For `COc1ccc2nc(SCC(=O)n3c4ccccc4c4ccccc43)nc(C)c2c1` [B12-13*] the same measures were 53.7 ± 9%, 19.1 ± 4%, 4.2 ± 1%, 33.1 ± 4% and 36.7 ± 8%.
For `CCCn1c2ccccc2c2nnc(SCC(=O)N3c4ccccc4Sc4ccccc43)nc21` [B12-14], at ERO1α, the “ERO1α inhibition at 20 μM (%)” value came out at 59.0 ± 6%. Moreover, at PDI, the “PDI inhibition at 100 μM (%)” value was 21.4 ± 6%. Further, in assay [1], the “H2O2 inhibition at 100 μM (%)” value amounted to 3.4 ± 1%. For the same compound, in assay [2], the “GSH inhibition at 100 μM (%)” value was determined as 31.9 ± 5%. For the same compound, in assay [3], the “MAO-A inhibition at 100 μM (%)” value worked out at 28.3 ± 5%.
In the case of `CCCc1cc(O)nc(SCC(=O)N2c3ccccc3Sc3ccccc32)n1` [B12-16], the “ERO1α inhibition at 20 μM (%)” value on ERO1α was 11.5 ± 3%. Also, on PDI, the “PDI inhibition at 100 μM (%)” value was found to be 11.9 ± 3%. In addition, the “H2O2 inhibition at 100 μM (%)” value in assay [1] was determined as 80.0 ± 18%. For the same compound, the “GSH inhibition at 100 μM (%)” value in assay [2] amounted to 21.9 ± 6%. In assay [3], the “MAO-A inhibition at 100 μM (%)” value is recorded as 34.3 ± 6%.
For the compound `COc1cc(O)nc(SCC(=O)N2c3ccccc3Sc3ccccc32)n1` [B12-18], the “ERO1α inhibition at 20 μM (%)” value at ERO1α was determined as 83.9 ± 16%. The “PDI inhibition at 100 μM (%)” value on PDI was 12.4 ± 5%. In addition, in assay [1], the “H2O2 inhibition at 100 μM (%)” value is on record as 0.2 ± 0.1%. The “GSH inhibition at 100 μM (%)” value in assay [2] was determined as 25.9 ± 5%. The “MAO-A inhibition at 100 μM (%)” value in assay [3] came to 37.5 ± 7%.
As to `Cc1cc(O)nc(SCC(=O)N2c3ccccc3Sc3ccccc32)n1` [B12-20], on ERO1α, the “ERO1α inhibition at 20 μM (%)” value stood at 82.3 ± 15%. For the same compound, the “PDI inhibition at 100 μM (%)” value on PDI is recorded as 6.7 ± 2%. Moreover, the “H2O2 inhibition at 100 μM (%)” value in assay [1] was found to be 2.3 ± 1%. Also, in assay [2], the “GSH inhibition at 100 μM (%)” value is listed as 10.2 ± 2%. Moreover, the “MAO-A inhibition at 100 μM (%)” value in assay [3] is listed as 50.2 ± 7%.
